Values after ≈ are worked out from the molar mass of the structure shown. Active and inactive are the calls of the source. The rule behind the calls is not given here.
What was measured:
[1] = Hemolytic activity in rabbit Red blood cell assessed as hemolysis rate at 8 microg/ml incubated for 1 hr; type: toxicity, cell-based, Oryctolagus cuniculus, Erythrocyte; conditions: red blood cells, at 8 µg/mL, read-out: Activity
[2] = Cytotoxicity against human HUVEC cells assessed as cell viability at 16 microg/ml measured after 24 hrs by CCK-8 assay relative to control; type: toxicity, cell-based; conditions: at 16 µg/mL, read-out: Activity
[3] = system: Nakaseomyces glabratus; assay: Antifungal activity against Candida glabrata 537 assessed as growth inhibition measured after 48 hrs incubation by CLSI based micro-dilution broth method; type: functional
[4] = system: Candida albicans; assay: Antifungal activity against FCZ-resistant Candida albicans 10231 assessed as growth inhibition measured after 48 hrs incubation by CLSI based micro-dilution broth method; type: functional
[5] = system: Candida albicans; assay: Antifungal activity against FCZ-resistant Candida albicans SC5314 assessed as growth inhibition at 4 microg/ml measured at 12 hrs incubation by time growth assay; type: functional, organism-based; conditions: dose 4.0 µg/ml
[6] = system: Candida albicans; assay: Antifungal activity against FCZ-resistant Candida albicans SC5314 assessed as growth inhibition measured after 48 hrs incubation by CLSI based micro-dilution broth method; type: functional
[7] = system: Candida parapsilosis; assay: Antifungal activity against Candida parapsilosis 22019 assessed as growth inhibition measured after 48 hrs incubation by CLSI based micro-dilution broth method; type: functional; conditions: Lodderomyces parapsilosis
[8] = system: Nakaseomyces glabratus; assay: Antifungal activity against FCZ-resistant Candida glabrata 537 assessed as growth inhibition at 4 microg/ml measured at 12 hrs incubation by time growth assay; type: functional, organism-based; conditions: dose 4.0 µg/ml
[9] = system: Candida albicans; assay: Antifungal activity against FCZ-resistant Candida albicans strain 904 assessed as growth inhibition measured after 48 hrs incubation by CLSI based micro-dilution broth method; type: functional
[10] = system: Pichia kudriavzevii; assay: Antifungal activity against FCZ-resistant Candida krusei 4996 assessed as growth inhibition at 32 microg/ml measured at 24 hrs incubation by time growth assay; type: functional, organism-based; conditions: dose 32.0 µg/ml
[11] = system: [Candida] auris; assay: Antifungal activity against FCZ-resistant Candida auris 919 assessed as growth inhibition measured after 48 hrs incubation by CLSI based micro-dilution broth method; type: functional; conditions: Candidozyma auris
[12] = system: Cryptococcus neoformans; assay: Antifungal activity against FCZ-resistant Cryptococcus neoformans 32609 assessed as growth inhibition at 1 microg/ml measured at 24 hrs incubation by time growth assay; type: functional, organism-based; conditions: dose 1.0 µg/ml
[13] = system: [Candida] auris; assay: Antifungal activity against FCZ-resistant Candida auris 918 assessed as growth inhibition measured after 48 hrs incubation by CLSI based micro-dilution broth method; type: functional; conditions: Candidozyma auris
[14] = target: T1, Lanosterol 14-alpha demethylase (Candida albicans (strain SC5314 / ATCC MYA-2876) (Yeast), UniProt P10613); assay: Inhibition of CYP51 in Candida albicans SC5314 assessed as accumulation of obtusifoliol at 4 microg/ml measured after 8 hrs by GC-MS analysis; conditions: dose 4 µg/ml
[15] = system: Cryptococcus neoformans; assay: Antifungal activity against Cryptococcus neoformans 32609 assessed as growth inhibition measured after 48 hrs incubation by CLSI based micro-dilution broth method; type: functional
[16] = system: Pichia kudriavzevii; assay: Antifungal activity against Candida krusei 4996 assessed as growth inhibition measured after 48 hrs incubation by CLSI based micro-dilution broth method; type: functional
[17] = system: Candida albicans; assay: Antifungal activity against FCZ-resistant Candida albicans strains assessed as growth inhibition measured after 48 hrs incubation by CLSI based micro-dilution broth method; type: functional
[18] = target: T1, Lanosterol 14-alpha demethylase; assay: Inhibition of CYP51 in Candida albicans SC5314 assessed as decrease in ergosterol biosynthesis at 4 microg/ml measured after 8 hrs by GC-MS analysis (reference value: 88.32%); set-up: scale not given: the % may be the effect or the level left; conditions: at 4 µg/mL
[19] = target: T1, Lanosterol 14-alpha demethylase; assay: Inhibition of CYP51 in Candida albicans SC5314 assessed as accumulation of eburicol at 4 microg/ml measured after 8 hrs by GC-MS analysis; conditions: dose 4 µg/ml
[20] = target: T1, Lanosterol 14-alpha demethylase; assay: Inhibition of CYP51 in Candida albicans SC5314 assessed as accumulation of 14alpha-methylfecosterol at 4 microg/ml measured after 8 hrs by GC-MS analysis; conditions: dose 4 µg/ml
[21] = system: Candida albicans; assay: In vivo antifungal activity against Candida albicans SC5314 infected in C57BL/6J mouse assessed as reduction in fungal burden in kidney at 0.5 mg/kg, po treated once a day for 2 days; type: functional, organism-based; conditions: time 2.0 day
[22] = Hemolytic activity in rabbit Red blood cell assessed as hemolysis rate at 64 microg/ml incubated for 1 hr; type: toxicity, cell-based, Oryctolagus cuniculus, Erythrocyte; conditions: red blood cells, at 64 µg/mL, read-out: Activity
[23] = system: Candida albicans; assay: Antifungal activity against FCZ-resistant Candida albicans strain 901 assessed as growth inhibition measured after 48 hrs incubation by CLSI based micro-dilution broth method; type: functional
[24] = system: Candida albicans; assay: Antifungal activity against FCZ-resistant Candida albicans strains assessed as growth inhibition in presence of (E)-2-((4,6-Bis((4-fluorobenzyl)amino)-1,3,5-triazin-2-yl)hydrazineylidene)methyl)-4-nitrophenol measured after 48 hrs incubation by CLSI based micro-dilution broth method; type: functional
[25] = system: Candida tropicalis; assay: Antifungal activity against Candida tropicalis 8915 assessed as growth inhibition measured after 48 hrs incubation by CLSI based micro-dilution broth method; type: functional
[26] = Metabolic stability in mouse liver microsomes assessed as intrinsic clearance measured per mg of protein upto 60 mins by LC-MS/MS analysis; type: ADME, Microsome; conditions: read-out: CLH
[27] = Metabolic stability in mouse liver microsomes assessed as half life measured upto 60 mins by LC-MS/MS analysis; type: ADME, Microsome
[28] = system: Candida albicans; assay: Synergistic antifungal activity against FCZ-resistant Candida albicans strain 904 assessed as fractional inhibitory concentration index measured after 48 hrs in presence of FCZ by CLSI based micro-dilution broth method; type: functional
[29] = system: Candida albicans; assay: Synergistic antifungal activity against FCZ-resistant Candida albicans strain 901 assessed as fractional inhibitory concentration index measured after 48 hrs in presence of FCZ by CLSI based micro-dilution broth method; type: functional
[30] = system: Candida albicans; assay: Antifungal activity against FCZ-resistant Candida albicans strain 904 assessed as growth inhibition in presence of fluconazole measured after 48 hrs incubation by CLSI based micro-dilution broth method; type: functional
[31] = system: Candida albicans; assay: Antifungal activity against FCZ-resistant Candida albicans strain 901 assessed as growth inhibition in presence of fluconazole measured after 48 hrs incubation by CLSI based micro-dilution broth method; type: functional
[32] = Cytotoxicity against human HUVEC cells assessed as cell viability measured after 24 hrs by CCK-8 assay; type: toxicity, cell-based
[33] = system: Candida albicans; assay: In vivo antifungal activity against Candida albicans SC5314 infected in C57BL/6J mouse assessed as reduction in fungal burden in kidney at 10 mg/kg, po treated once a day for 2 days; type: functional, organism-based; conditions: time 2.0 day

T1 sequence (P10613 whole entry): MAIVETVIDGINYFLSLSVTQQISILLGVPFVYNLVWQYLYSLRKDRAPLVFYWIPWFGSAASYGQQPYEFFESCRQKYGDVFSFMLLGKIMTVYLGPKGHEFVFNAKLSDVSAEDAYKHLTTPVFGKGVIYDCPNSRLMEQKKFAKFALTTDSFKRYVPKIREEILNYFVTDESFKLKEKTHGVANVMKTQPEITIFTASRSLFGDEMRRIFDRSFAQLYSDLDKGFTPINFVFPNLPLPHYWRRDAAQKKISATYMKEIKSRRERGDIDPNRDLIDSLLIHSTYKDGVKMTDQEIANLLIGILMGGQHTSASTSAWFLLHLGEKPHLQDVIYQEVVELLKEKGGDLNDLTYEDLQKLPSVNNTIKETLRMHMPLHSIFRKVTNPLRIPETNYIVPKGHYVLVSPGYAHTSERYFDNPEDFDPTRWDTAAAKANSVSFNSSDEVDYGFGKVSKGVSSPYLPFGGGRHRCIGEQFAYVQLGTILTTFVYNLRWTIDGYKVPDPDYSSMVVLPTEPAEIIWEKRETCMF

Row | Compound | viability at 24 h, 16 microg/ml [2] [%] | MIC80 [3] [mg/L] | MIC80 [4] [mg/L] | MIC80 [6] [mg/L] | MIC80 [7] [mg/L] | MIC80 [9] [mg/L] | MIC80 [11] [mg/L] | MIC80 [13] [mg/L] | MIC80 [15] [mg/L] | MIC80 [16] [mg/L] | MIC80 [17] [mg/L] | hemolysis at 1 h, 64 microg/ml [22] [%] | MIC80 [23] [mg/L] | MIC80 [25] [mg/L] | fractional inhibitory concentration index (FICI) [28] | fractional inhibitory concentration index (FICI) [29] | MIC80 [30] [mg/L] | MIC80 [31] [mg/L] | other results
1 | C[C@@H]1[C@H](O)[C@@H](C)/C=C/C=C/C=C/C=C/C=C/C=C/C=C/[C@H](O[C@@H]2O[C@H](C)[C@@H](O)[C@H](N)[C@@H]2O)C[C@@H]2O[C@](O)(C[C@@H](O)C[C@@H](O)[C@H](O)CC[C@@H](O)C[C@@H](O)CC(=O)O[C@H]1C)C[C@H](O)[C@H]2C(=O)O [AMPHOTERICIN B] |  |  |  |  |  |  |  |  |  |  |  |  |  |  |  |  |  |  | hemolysis at 1 h, 8 microg/ml [1]: 50.7%
2 | OC(Cn1cncn1)(Cn1cncn1)c1ccc(F)cc1F [FLUCONAZOLE] | 82.8 | 1 (≈ 3.27 µM) | 64 (≈ 209 µM) | 0.5 (≈ 1.63 µM) | 2 (≈ 6.53 µM) | > 64 | > 64 | > 64 | 2 (≈ 6.53 µM) | 64 (≈ 209 µM) | > 64 | 23.9 | > 64 | 0.5 (≈ 1.63 µM) |  |  |  |  | Activity [5]: Active; Activity [8]: inactive; Activity [10]: Active; Activity [12]: inactive; Activity [14]: Active; Activity [18]: 2.91%; Activity [19]: Active; Activity [20]: Active; Activity [21]: Active; MIC80 [24]: 1 mg/L
3 | Cc1ncc2n1-c1ccc(Cl)cc1C(c1ccccc1F)=NC2 [MIDAZOLAM] |  |  |  |  |  |  |  |  |  |  |  |  |  |  |  |  |  |  | microsomal CLint [26]: 1120 µL/min/mg; half-life [27]: 3.09 min
4 | O=[N+]([O-])c1cccc(O)c1/C=N/Nc1nc(NCc2ccc(F)cc2)nc(NCc2ccc(F)cc2)n1 |  | 2 (≈ 3.95 µM) | > 64 | > 64 | > 64 | 4 (≈ 7.9 µM) | > 64 | > 64 | > 64 | > 64 | 4 (≈ 7.9 µM) |  | 4 (≈ 7.9 µM) | > 64 | 0.38 | 0.19 | 1 | 0.25 | 
5 | NCCOCCOCCNC(=O)Cc1ccc(Nc2nc(NCc3ccc(F)cc3)nc(NCC3CCCCC3)n2)cc1 | 89.8 | 32 (≈ 53.8 µM) | 32 (≈ 53.8 µM) | 16 (≈ 26.9 µM) | 32 (≈ 53.8 µM) | 32 (≈ 53.8 µM) | 32 (≈ 53.8 µM) | 32 (≈ 53.8 µM) | 16 (≈ 26.9 µM) | 32 (≈ 53.8 µM) |  | 3.48 |  | 32 (≈ 53.8 µM) | 0.38 | 0.63 | 8 | 16 | IC50 at 24 h [32]: 48.2 mg/L (≈ 81.1 µM); Activity [33]: Active

— ChEMBL document CHEMBL5528067, “From Synergy to Monotherapy: Discovery of Novel 2,4,6-Trisubstituted Triazine Hydrazone Derivatives with Potent Antifungal Potency In Vitro and In Vivo” (J Med Chem, 2024)
